Reference: paper PMC3196794 (Chemical research in toxicology, 2011)
Read-outs that look alike come from different tables or passages of the source.

Legend:
hSULT2A1 [1] = molecular target: T1, hSULT2A1 (Homo sapiens, UniProt Q06520); assay: Inhibition of the sulfation of DHEA catalyzed by hSULT2A1; type: biochemical
T1 sequence (Q06520 1-285): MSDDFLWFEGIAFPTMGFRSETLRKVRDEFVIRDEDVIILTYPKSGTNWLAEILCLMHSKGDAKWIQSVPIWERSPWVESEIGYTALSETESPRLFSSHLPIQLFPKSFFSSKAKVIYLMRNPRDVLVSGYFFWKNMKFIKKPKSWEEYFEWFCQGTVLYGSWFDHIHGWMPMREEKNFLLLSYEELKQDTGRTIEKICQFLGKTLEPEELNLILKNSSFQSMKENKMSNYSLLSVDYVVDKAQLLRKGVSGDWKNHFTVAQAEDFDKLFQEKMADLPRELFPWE

hSULT2A1 [2] = molecular target: T1, hSULT2A1; assay: CoMFA 3D-QSAR model for inhibition of hSULT2A1 by OHPCBs; conditions: for Difference between the experimental and the predicted values for pIC50: CoMFA Model 1
hSULT2A1 [3] = molecular target: T1, hSULT2A1; assay: OHPCBs as substrates for hSULT2A1; type: biochemical; conditions: 200 μM PAPS; fit to substrate inhibition equation
[4] = pH 7
hSULT2A1 [5] = molecular target: T1, hSULT2A1; conditions: 200 μM PAPS; cited from earlier work
[6] = IC50 (inhibition of the sulfation of DHEA catalyzed by hSULT2A1), 1 μM [3H]DHEA, 200 μM PAPS, pH 7.0, 37°C, 10 min, mean ± standard error of the fit
[7] = Actual pIC50, -log IC50 (M), Table 3

| Structure (SMILES) | IC50 (hSULT2A1 [1]; [6]) [M] | Difference between the experimental and the predicted values for pIC50 (hSULT2A1 [2]) | IC50 (hSULT2A1 [1]; [7]) [M] | Kis (substrate inhibition constant) (hSULT2A1 [3]) [µM] | also measured |
| --- | --- | --- | --- | --- | --- |
| Oc1ccc(-c2ccc(Cl)cc2)cc1O [3′,4′-diOHPCB 3, 3′, 4′-dihydroxy-4-monochlorobiphenyl] | 9.6e-05 ± 1.2e-06 | 0.072 | – | – | IC50 (hSULT2A1 [1]; IC50 (experimental, Table 3), experimental values used for CoMFA Model 1): 9.57e-05 M |
| Oc1ccc(-c2cccc(Cl)c2Cl)cc1O [3′,4′-diOHPCB 5, 3′, 4′-dihydroxy-2,3-dichlorobiphenyl] | 1.6e-05 ± 1.1e-06 | 0.054 | 1.59e-05 | – | – |
| Oc1ccc(-c2ccc(Cl)cc2)c(Cl)c1 [4-OHPCB 8, 4-hydroxy-2, 4′-dichlorobiphenyl] | 1e-05 ± 1.2e-06 | 0.303 | 1e-05 | 65.4 ± 73.8 | – |
| Oc1ccc(-c2cccc(Cl)c2)cc1Cl [4-OHPCB 11, 4-hydroxy-3, 3′-dichlorobiphenyl] | 1.4e-05 ± 1.2e-06 | 0.011 | 1.4e-05 | 51.9 ± 65.7 | – |
| Oc1c(Cl)cc(-c2ccccc2)cc1Cl [4-OHPCB 14, 4-hydroxy-3,5-dichlorobiphenyl] | 1.3e-05 ± 1.1e-06 | 0.196 | 1.3e-05 | 220 ± 56 | IC50 (hSULT2A1 [1]; Actual IC50, Table 4): 1.3e-05 M; fold difference between the predicted and the actual IC50 values (hSULT2A1 [2]; CoMFA Model 2): 3.8 fold |
| Oc1c(Cl)cc(-c2ccccc2Cl)cc1Cl [4-OHPCB 34, 4-hydroxy-2′, 3,5-trichlorobiphenyl] | – | 0.199 | 6e-07 | 47.4 ± 16.2 | fold decrease in IC50 compared with 4-OHPCB 36 (hSULT2A1 [1]; chlorine in the non-phenolic ring changed from meta to ortho): approximately 7 fold |
| Oc1c(Cl)cc(-c2cccc(Cl)c2)cc1Cl [4-OHPCB 36, 4-hydroxy-3, 3′, 5-trichlorobiphenyl] | 4.4e-06 ± 1.2e-06 | 0.088 | 4.4e-06 | 39.4 ± 23.1 | – |
| Oc1ccc(-c2ccc(Cl)cc2)cc1 [4′-OHPCB 3, 4′-hydroxy-4-monochlorobiphenyl] | 2.8e-05 ± 1.1e-06 | 0.026 | 2.81e-05 | – | – |
| Oc1ccc(-c2ccccc2Cl)cc1Cl [4′-OHPCB 6, 4′-hydroxy-2, 3′-dichlorobiphenyl] | 9.8e-06 ± 1.1e-06 | 0.108 | 9.79e-06 | – | – |
| Oc1ccc(-c2cc(Cl)ccc2Cl)cc1 [4′-OHPCB 9, 4′-hydroxy-2,5-dichlorobiphenyl] | 7.5e-06 ± 1.1e-06 | 0.011 | 7.5e-06 | – | – |
| Oc1ccc(-c2ccc(Cl)c(Cl)c2)cc1 [4′-OHPCB 12, 4′-hydroxy-3,4-dichlorobiphenyl] | 1.6e-05 ± 1.1e-06 | 0.039 | 1.58e-05 | – | IC50 (hSULT2A1 [1]; Actual IC50, Table 4): 1.58e-05 M |
| Oc1ccc(-c2ccc(Cl)cc2Cl)cc1Cl [4′-OHPCB 25, 4′-hydroxy-2, 3′, 4-trichlorobiphenyl] | 4.4e-06 ± 1.3e-06 | 0.084 | 4.4e-06 | – | IC50 (hSULT2A1 [1]; Actual IC50, Table 4): 4.4e-06 M; solubility [4]: low solubility |
| Oc1ccc(-c2ccc(Cl)c(Cl)c2)c(Cl)c1 [4′-OHPCB 33, 4′-hydroxy-2′, 3,4-trichlorobiphenyl] | 2.5e-06 ± 1.1e-06 | 0.099 | 2.5e-06 | 217 ± 189 | – |
| Oc1c(Cl)cc(-c2ccc(Cl)cc2Cl)cc1Cl [4′-OHPCB 68, 4′-hydroxy-2, 3′, 4, 5′-tetrachlorobiphenyl] | – | 0.056 | 8e-07 | – | – |
| Oc1ccc(Cl)cc1-c1ccc(Cl)c(Cl)c1 [6′-OHPCB 35, 6′-hydroxy-3, 3′-4 trichlorobiphenyl] | – | 0.088 | – | – | Actual pIC50 (hSULT2A1 [1]; -log IC50 (M), Table 3): 4.810; IC50 (hSULT2A1 [1]; read-out: IC50 (inhibition of the sulfation of DHEA catalyzed by hSULT2A1), 1 μM [3H]DHEA, 200 μM PAPS, pH 7.0, 37°C, 10 min, mean ± standard error of the fit): 1.6e-05 ± 1.1e-06 M |
| C[C@]12CC[C@H](O)CC1=CC[C@@H]1[C@@H]2CC[C@]2(C)C(=O)CC[C@@H]12 [DHEA, dehydroepiandrosterone] | – | – | – | – | Kis with DHEA as substrate (hSULT2A1 [5]): 8 ± 3 µM; Vmax with DHEA as substrate (hSULT2A1 [5]): 245 ± 40 nmol/min/mg |
